{"source": "the supplement of paper PMC10307832", "assay_in_all_cases": "relative viability (nuclei count vs DMSO), 5 days (fraction); higher = more cells survive", "key": {"[1]": {"test_system": "A-427", "procedure,_shortened": "(§1)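 Relative viability is defined as nuclei in treated wells over nuclei in vehicle wells. Duplicate plates were run and medians reported. Lung cancer cell lines in 1536-well plates were dosed by pin tool one day after seeding, with one drug or with a fixed anchor-drug dose plus five library-drug doses (not always all listed) in √10 steps, and nuclei were counted after 5 days.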"}, "[2]": {"test_system": "CAL-12T", "procedure,_shortened": "as §1"}, "[3]": {"test_system": "COR-L 105", "procedure,_shortened": "as §1"}, "[4]": {"test_system": "COR-L23", "procedure,_shortened": "as §1"}, "[5]": {"test_system": "EPLC-272H", "procedure,_shortened": "as §1"}, "[6]": {"test_system": "HOP-62", "procedure,_shortened": "as §1"}, "[7]": {"test_system": "LXF-289", "procedure,_shortened": "as §1"}, "[8]": {"test_system": "NCI-H1395", "procedure,_shortened": "as §1"}, "[9]": {"test_system": "NCI-H1651", "procedure,_shortened": "as §1"}, "[10]": {"test_system": "NCI-H1975", "procedure,_shortened": "as §1"}, "[11]": {"test_system": "NCI-H1993", "procedure,_shortened": "as §1"}, "[12]": {"test_system": "NCI-H2023", "procedure,_shortened": "as §1"}, "[13]": {"test_system": "NCI-H2085", "procedure,_shortened": "as §1"}, "[14]": {"test_system": "NCI-H2087", "procedure,_shortened": "as §1"}, "[15]": {"test_system": "NCI-H2170", "procedure,_shortened": "as §1"}, "[16]": {"test_system": "NCI-H3122", "procedure,_shortened": "as §1"}, "[17]": {"test_system": "NCI-H596", "procedure,_shortened": "as §1"}, "[18]": {"test_system": "NCI-H647", "procedure,_shortened": "as §1"}, "[19]": {"test_system": "NCI-H650", "procedure,_shortened": "as §1"}, "[20]": {"test_system": "PC-14", "procedure,_shortened": "as §1"}, "[21]": {"test_system": "RERF-LC-KJ", "procedure,_shortened": "as §1"}, "[22]": {"test_system": "SK-MES-1", "procedure,_shortened": "as §1"}}, "data": [{"smiles": "O=c1[nH]c2ccccc2n1C1CCN(CCCC(c2ccc(F)cc2)c2ccc(F)cc2)CC1", "note": "[Pimozide] + CS(=O)(=O)CCNCc1ccc(-c2ccc3ncnc(Nc4ccc(OCc5cccc(F)c5)c(Cl)c4)c3c2)o1 [Lapatinib] (partner 2 µM)", "values": [{"measurement": "relative viability", "setting": "[1]; first compound 0.08 µM", "result": 0.941}, {"measurement": "relative viability", "setting": "[1]; first compound 0.253 µM", "result": 1.03}, {"measurement": "relative viability", "setting": "[1]; first compound 0.8 µM", "result": 1.01}, {"measurement": "relative viability", "setting": "[1]; first compound 2.53 µM", "result": 0.911}, {"measurement": "relative viability", "setting": "[1]; first compound 8 µM", "result": 0.985}, {"measurement": "relative viability", "setting": "[2]; first compound 0.08 µM", "result": 0.57}, {"measurement": "relative viability", "setting": "[2]; first compound 0.253 µM", "result": 0.588}, {"measurement": "relative viability", "setting": "[2]; first compound 0.8 µM", "result": 0.551}, {"measurement": "relative viability", "setting": "[2]; first compound 2.53 µM", "result": 0.538}, {"measurement": "relative viability", "setting": "[2]; first compound 8 µM", "result": 0.625}, {"measurement": "relative viability", "setting": "[3]; first compound 0.253 µM", "result": 0.395}, {"measurement": "relative viability", "setting": "[3]; first compound 0.8 µM", "result": 0.377}, {"measurement": "relative viability", "setting": "[3]; first compound 2.53 µM", "result": 0.396}, {"measurement": "relative viability", "setting": "[3]; first compound 8 µM", "result": 0.351}, {"measurement": "relative viability", "setting": "[4]; first compound 0.08 µM", "result": 0.99}, {"measurement": "relative viability", "setting": "[4]; first compound 0.253 µM", "result": 0.856}, {"measurement": "relative viability", "setting": "[4]; first compound 0.8 µM", "result": 0.881}, {"measurement": "relative viability", "setting": "[4]; first compound 2.53 µM", "result": 0.914}, {"measurement": "relative viability", "setting": "[4]; first compound 8 µM", "result": 0.862}, {"measurement": "relative viability", "setting": "[5]; first compound 0.08 µM", "result": 0.819}, {"measurement": "relative viability", "setting": "[5]; first compound 0.253 µM", "result": 0.945}, {"measurement": "relative viability", "setting": "[5]; first compound 0.8 µM", "result": 0.716}, {"measurement": "relative viability", "setting": "[5]; first compound 2.53 µM", "result": 0.809}, {"measurement": "relative viability", "setting": "[5]; first compound 8 µM", "result": 0.689}, {"measurement": "relative viability", "setting": "[6]; first compound 0.08 µM", "result": 0.917}, {"measurement": "relative viability", "setting": "[6]; first compound 0.253 µM", "result": 1.09}, {"measurement": "relative viability", "setting": "[6]; first compound 2.53 µM", "result": 0.995}, {"measurement": "relative viability", "setting": "[6]; first compound 8 µM", "result": 1.06}, {"measurement": "relative viability", "setting": "[7]; first compound 0.08 µM", "result": 0.863}, {"measurement": "relative viability", "setting": "[7]; first compound 0.253 µM", "result": 0.937}, {"measurement": "relative viability", "setting": "[7]; first compound 0.8 µM", "result": 0.882}, {"measurement": "relative viability", "setting": "[7]; first compound 2.53 µM", "result": 0.87}, {"measurement": "relative viability", "setting": "[7]; first compound 8 µM", "result": 0.829}, {"measurement": "relative viability", "setting": "[8]; first compound 0.08 µM", "result": 0.966}, {"measurement": "relative viability", "setting": "[8]; first compound 0.253 µM", "result": 1.17}, {"measurement": "relative viability", "setting": "[8]; first compound 0.8 µM", "result": 1.06}, {"measurement": "relative viability", "setting": "[8]; first compound 2.53 µM", "result": 0.756}, {"measurement": "relative viability", "setting": "[8]; first compound 8 µM", "result": 0.838}, {"measurement": "relative viability", "setting": "[9]; first compound 0.08 µM", "result": 0.967}, {"measurement": "relative viability", "setting": "[9]; first compound 0.253 µM", "result": 0.734}, {"measurement": "relative viability", "setting": "[9]; first compound 0.8 µM", "result": 0.934}, {"measurement": "relative viability", "setting": "[9]; first compound 2.53 µM", "result": 0.809}, {"measurement": "relative viability", "setting": "[9]; first compound 8 µM", "result": 0.746}, {"measurement": "relative viability", "setting": "[10]; first compound 0.08 µM", "result": 0.928}, {"measurement": "relative viability", "setting": "[10]; first compound 0.253 µM", "result": 0.848}, {"measurement": "relative viability", "setting": "[10]; first compound 0.8 µM", "result": 0.945}, {"measurement": "relative viability", "setting": "[10]; first compound 2.53 µM", "result": 0.897}, {"measurement": "relative viability", "setting": "[10]; first compound 8 µM", "result": 0.751}, {"measurement": "relative viability", "setting": "[11]; first compound 0.08 µM", "result": 0.894}, {"measurement": "relative viability", "setting": "[11]; first compound 0.253 µM", "result": 0.714}, {"measurement": "relative viability", "setting": "[11]; first compound 0.8 µM", "result": 0.697}, {"measurement": "relative viability", "setting": "[11]; first compound 2.53 µM", "result": 0.788}, {"measurement": "relative viability", "setting": "[11]; first compound 8 µM", "result": 0.901}, {"measurement": "relative viability", "setting": "[12]; first compound 0.08 µM", "result": 0.793}, {"measurement": "relative viability", "setting": "[12]; first compound 0.253 µM", "result": 0.964}, {"measurement": "relative viability", "setting": "[12]; first compound 0.8 µM", "result": 0.592}, {"measurement": "relative viability", "setting": "[12]; first compound 2.53 µM", "result": 0.729}, {"measurement": "relative viability", "setting": "[12]; first compound 8 µM", "result": 0.412}, {"measurement": "relative viability", "setting": "[13]; first compound 0.08 µM", "result": 0.786}, {"measurement": "relative viability", "setting": "[13]; first compound 0.253 µM", "result": 0.711}, {"measurement": "relative viability", "setting": "[13]; first compound 0.8 µM", "result": 0.704}, {"measurement": "relative viability", "setting": "[13]; first compound 2.53 µM", "result": 0.704}, {"measurement": "relative viability", "setting": "[13]; first compound 8 µM", "result": 0.698}, {"measurement": "relative viability", "setting": "[14]; first compound 0.08 µM", "result": 0.999}, {"measurement": "relative viability", "setting": "[14]; first compound 0.253 µM", "result": 1.1}, {"measurement": "relative viability", "setting": "[14]; first compound 0.8 µM", "result": 0.825}, {"measurement": "relative viability", "setting": "[14]; first compound 2.53 µM", "result": 1.06}, {"measurement": "relative viability", "setting": "[14]; first compound 8 µM", "result": 0.847}, {"measurement": "relative viability", "setting": "[15]; first compound 0.08 µM", "result": 0.277}, {"measurement": "relative viability", "setting": "[15]; first compound 0.253 µM", "result": 0.278}, {"measurement": "relative viability", "setting": "[15]; first compound 0.8 µM", "result": 0.276}, {"measurement": "relative viability", "setting": "[15]; first compound 2.53 µM", "result": 0.283}, {"measurement": "relative viability", "setting": "[15]; first compound 8 µM", "result": 0.272}, {"measurement": "relative viability", "setting": "[16]; first compound 0.08 µM", "result": 1}, {"measurement": "relative viability", "setting": "[16]; first compound 0.253 µM", "result": 1}, {"measurement": "relative viability", "setting": "[16]; first compound 0.8 µM", "result": 0.813}, {"measurement": "relative viability", "setting": "[16]; first compound 2.53 µM", "result": 1}, {"measurement": "relative viability", "setting": "[16]; first compound 8 µM", "result": 1.01}, {"measurement": "relative viability", "setting": "[17]; first compound 0.08 µM", "result": 1}, {"measurement": "relative viability", "setting": "[17]; first compound 0.253 µM", "result": 1.15}, {"measurement": "relative viability", "setting": "[17]; first compound 0.8 µM", "result": 1.16}, {"measurement": "relative viability", "setting": "[17]; first compound 2.53 µM", "result": 1.01}, {"measurement": "relative viability", "setting": "[17]; first compound 8 µM", "result": 0.87}, {"measurement": "relative viability", "setting": "[18]; first compound 0.08 µM", "result": 1.18}, {"measurement": "relative viability", "setting": "[18]; first compound 0.253 µM", "result": 1.03}, {"measurement": "relative viability", "setting": "[18]; first compound 0.8 µM", "result": 0.973}, {"measurement": "relative viability", "setting": "[18]; first compound 2.53 µM", "result": 0.964}, {"measurement": "relative viability", "setting": "[18]; first compound 8 µM", "result": 0.58}, {"measurement": "relative viability", "setting": "[19]; first compound 0.08 µM", "result": 1.03}, {"measurement": "relative viability", "setting": "[19]; first compound 0.253 µM", "result": 0.861}, {"measurement": "relative viability", "setting": "[19]; first compound 0.8 µM", "result": 0.694}, {"measurement": "relative viability", "setting": "[19]; first compound 2.53 µM", "result": 0.716}, {"measurement": "relative viability", "setting": "[19]; first compound 8 µM", "result": 0.835}, {"measurement": "relative viability", "setting": "[20]; first compound 0.253 µM", "result": 0.38}, {"measurement": "relative viability", "setting": "[20]; first compound 0.8 µM", "result": 0.297}, {"measurement": "relative viability", "setting": "[20]; first compound 2.53 µM", "result": 0.334}, {"measurement": "relative viability", "setting": "[20]; first compound 8 µM", "result": 0.325}, {"measurement": "relative viability", "setting": "[21]; first compound 0.08 µM", "result": 0.885}, {"measurement": "relative viability", "setting": "[21]; first compound 0.253 µM", "result": 0.801}, {"measurement": "relative viability", "setting": "[21]; first compound 0.8 µM", "result": 0.776}, {"measurement": "relative viability", "setting": "[21]; first compound 2.53 µM", "result": 0.784}, {"measurement": "relative viability", "setting": "[21]; first compound 8 µM", "result": 0.742}, {"measurement": "relative viability", "setting": "[22]; first compound 0.08 µM", "result": 0.468}, {"measurement": "relative viability", "setting": "[22]; first compound 0.253 µM", "result": 0.445}, {"measurement": "relative viability", "setting": "[22]; first compound 0.8 µM", "result": 0.451}, {"measurement": "relative viability", "setting": "[22]; first compound 2.53 µM", "result": 0.491}, {"measurement": "relative viability", "setting": "[22]; first compound 8 µM", "result": 0.507}]}]}
